Results published in patent publication US5179091A, “Chalcones” (Adir et Compagnie, priority 1990, dated 1993).

What was measured:
lipoxygenase = molecular target: T1, lipoxygenase (Homo sapiens, UniProt P09917); test: Inhibition of lipoxygenase activity, LTB4 measured by radioimmunoassay; format: cell-based; details: concentration of 10^-5 M, washed human polynuclear cells activated by calcium; read-out: inhibition of lipoxygenase action (LTB4 produced)
T1 construct: endogenous in cells
T1 sequence (P09917 1-674): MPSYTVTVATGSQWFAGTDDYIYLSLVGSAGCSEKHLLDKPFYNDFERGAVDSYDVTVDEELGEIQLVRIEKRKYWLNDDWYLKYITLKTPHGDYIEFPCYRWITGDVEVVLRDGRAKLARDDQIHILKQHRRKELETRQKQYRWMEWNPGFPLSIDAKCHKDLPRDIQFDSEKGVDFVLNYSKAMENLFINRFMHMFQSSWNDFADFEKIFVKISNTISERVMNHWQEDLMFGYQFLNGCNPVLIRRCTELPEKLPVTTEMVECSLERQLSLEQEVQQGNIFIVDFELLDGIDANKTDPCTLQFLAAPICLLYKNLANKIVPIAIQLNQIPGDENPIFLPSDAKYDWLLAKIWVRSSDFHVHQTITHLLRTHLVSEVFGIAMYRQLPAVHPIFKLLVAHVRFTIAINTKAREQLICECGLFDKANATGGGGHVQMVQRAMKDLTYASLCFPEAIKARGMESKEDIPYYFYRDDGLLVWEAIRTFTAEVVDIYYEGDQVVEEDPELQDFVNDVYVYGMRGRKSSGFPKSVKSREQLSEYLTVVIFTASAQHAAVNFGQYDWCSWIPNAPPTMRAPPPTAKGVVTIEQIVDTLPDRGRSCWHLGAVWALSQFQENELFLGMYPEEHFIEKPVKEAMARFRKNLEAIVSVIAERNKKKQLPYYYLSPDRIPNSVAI
Procedure: The lipoxygenase activity is measured using washed human polynuclear cells, in the presence and absence of the claimed compounds after activation by calcium (A 23/87). The leukotriene B4 (LTB4) produced is measured by radioimmunoassay (Gresele, P. et al. Biochem. Biophys. Res. Comm. 1986, 137, 334-342).

rat brain homogenates [1] = test: Inhibition of lipid peroxidation induced by the Fe++/ascorbate system; format: biochemical; details: concentration of 10^-5 M, Fe++/ascorbate (10 μM/250 μM)
Procedure: A study of the capacity of the compounds of the invention to trap free OH. radicals was studied on rat brain homogenates on the other hand with respect to peroxidation induced by the Fe++/ascorbate (10 μM/250 μM) system. The rat brain homogenates are placed in the presence or absence of the test compounds for 60 minutes at 37° C. The intensity of lipid peroxidation in the presence and in the absence of the compounds of the invention is determined by the substances reacting with thiobarbituric acid, expressed in mmol of malondialdehyde, by a method derived from that of […], Biochem. Med. 1976, 15, 212-216). The methodology is identical, with the exception of the addition to the homogenate of the Fe++/ascorbate radical-inducing system.

[2] = Inhibition of formation of conjugated dienes formed by free-radical activity; format: biochemical; details: 10^-5 M concentration, linoleic acid emulsion, Fe2+/Fe3+ mixture
From the text: This methodology consists in generating free OH- radicals in an emulsion of linoleic acid, by means of a system consisting of an Fe^2+ /Fe^3+ mixture.

native LDL = test: Level of LDL oxidation by Cu++, oxidation products assayed by FPLC; format: biochemical; details: relative to probucol (i=1)
Procedure: Under these conditions, free radicals are generated by Cu++ in a medium containing native LDL in the presence or absence of the test compounds. The reaction is stopped by adding 2,6-di-tert-butyl-4-methylphenol and EDTA to the reaction medium and the oxidation products are assayed by FPLC.
D being the height of the peak of fraction 27/28 of the chromatogram; the sum of the oxidized fractions 27/28 and 31/32 is equal to 100.

rat brain homogenates [3] = test: Inhibition of spontaneous lipid peroxidation (thiobarbituric acid reacting substances); format: biochemical; details: concentration of 10^-5 M, 60 minutes at 37° C.
Procedure: A study of the capacity of the compounds of the invention to trap free OH. radicals was studied on rat brain homogenates on the one hand with respect to the spontaneous peroxidation of lipids, The rat brain homogenates are placed in the presence or absence of the test compounds for 60 minutes at 37° C. The intensity of lipid peroxidation in the presence and in the absence of the compounds of the invention is determined by the substances reacting with thiobarbituric acid, expressed in mmol of malondialdehyde, by a method derived from that of […], Biochem. Med. 1976, 15, 212-216).

Human red cells = test: AAPH-induced hemolysis; format: cell-based; details: Erythrocyte, 0.5 h, concentration of 10^-5 M, 30 minutes at 37° C.

Row | Compound | inhibition at 10 µM (lipoxygenase) [%] | inhibition of induced peroxidation (rat brain homogenates [1]) [%] | LDL oxidation: oxidized fraction 27/28 of the chromatogram (native LDL) | inhibition of spontaneous peroxidation (rat brain homogenates [3]) | other results
1 | Cn1c(=O)oc2ccc(C(=O)C=Cc3cc(C(C)(C)C)c(O)c(C(C)(C)C)c3)cc21 [Example 1, 5-(3',5'-di-tert-butyl-4'-hydroxycinnamo-yl)-3-methylbenzoxazolinone] | ~80 |  |  |  | 
2 | Cn1c(=O)sc2cc(C(=O)C=Cc3cc(C(C)(C)C)c(O)c(C(C)(C)C)c3)ccc21 [Example 4, 6-(3',5'-di-tert-butyl-4'-hydroxycinnamoyl)-3-methylbenzothiazolinone] |  | ~30 |  |  | 
3 | Cn1c(=O)oc2cc(C(=O)C=Cc3cc(C(C)(C)C)c(O)c(C(C)(C)C)c3)ccc21 [Example 5, 6-(3',5'-di-tert-butyl-4'-hydroxycinnamoyl)-3-methylbenzoxazolinone] | ~60 |  |  |  | 
4 | CC(C)(C)c1cc(C=CC(=O)c2ccc3[nH]c(=O)oc3c2)cc(C(C)(C)C)c1O [Example 6, 6-(3',540-di-tert-butyl-4'-hydroxycinnamoyl)benzoxazolinone] |  |  |  |  | inhibition of diene formation [2]: approximately 75%
5 | CC(C)(C)c1cc(C=CC(=O)c2ccc3c(c2)OCC(=O)N3)cc(C(C)(C)C)c1O [Example 7, 7-(3',54- -di-tert-butyl-4'-hydroxycinnamoyl)-1,4-benzoxazin-3-one] |  |  |  |  | inhibition of diene formation [2]: approximately 75%
6 | CC1C(=Cc2cc(C(C)(C)C)c(O)c(C(C)(C)C)c2)C(=O)c2cc3oc(=O)n(C)c3cc21 (stereo not drawn) [Example 27, 2,3-dihydro-3,5-dimethyl-6-(3',5'-di-tert-butyl-4'-hydroxybenzylidene)cyclopenta[f]benzoxazone-2,7-dione] |  |  | oxidized fraction 27/28 disappears |  | 
7 | CC1CC(=Cc2cc(C(C)(C)C)c(O)c(C(C)(C)C)c2)C(=O)c2cc3c(cc21)oc(=O)n3C (stereo not drawn) [Example 28, 2,3-dihydro-3,8-dimethyl-6-(3',5'-di-tert-butyl-4'-hydroxybenzylidene)cyclohexa[f]benzoxazone-2,5-dione] |  |  | oxidized fraction 27/28 disappears |  | 
8 | CC1C(=Cc2cc(C(C)(C)C)c(O)c(C(C)(C)C)c2)C(=O)c2cc3c(cc21)oc(=O)n3C (stereo not drawn) [Example 29, 2,3-dihydro-3,7-dimethyl-6-(3',5'-di-tert-butyl-4'-hydroxybenzylidene)cyclopenta[f]benzoxazole-2,5-dione] |  |  | oxidized fraction 27/28 disappears |  | 
9 | CC1C(=Cc2cc(C(C)(C)C)c(O)c(C(C)(C)C)c2)C(=O)c2cc3oc(=O)[nH]c3cc21 (stereo not drawn) [Example 33, 2,3-dihydro-5-methyl-6-(3',5'-di-tert-butyl-4'-hydroxybenzylidene)cyclopenta[f]benzoxa-zone-2,6-dione] |  | ~50 | oxidized fraction 27/28 disappears | approximately 50% | 
10 | CC(C)(C)c1cc(C=C2C(=O)c3cc4oc(=O)[nH]c4cc3C2c2ccccc2)cc(C(C)(C)C)c1O (stereo not drawn) [Example 35, 2,3-dihydro-5-phenyl-6-(3',5'-di-tert-butyl-4'-hydroxybenzylidene)cyclopenta[f]benzoxazole-2,7-dione] | ~60 | ~50 | oxidized fraction 27/28 disappears | approximately 50% | 
11 | Cn1c(=O)oc2cc3c(cc21)C(c1ccccc1)C(=Cc1cc(C(C)(C)C)c(O)c(C(C)(C)C)c1)C3=O (stereo not drawn) [Example 36, 2,3-dihydro-3-methyl-5-phenyl-6-(3',5'-di-tert-butyl-4'-hydroxybenzylidene)cyclopenta[f]benzoxazole-2,7-dione] | ~60 | ~50 | oxidized fraction 27/28 disappears | approximately 50% | inhibition of diene formation [2]: approximately 50%
12 | Cn1c(=O)oc2cc3c(cc21)CC(=Cc1cc(C(C)(C)C)c(O)c(C(C)(C)C)c1)C3=O [Example 40, 2,3-dihydro-3-methyl-2,7-dioxo-6-(3',5'-di-tert-butyl-4'-hydroxybenzylidene)cyclopenta[f]benzoxazole-2,7-dione] |  |  |  | approximately 50% | 
13 | CC(C)(Sc1cc(C(C)(C)C)c(O)c(C(C)(C)C)c1)Sc1cc(C(C)(C)C)c(O)c(C(C)(C)C)c1 [probucol, reference compound] | 44 | 27 |  | 37% | inhibition at 10 µM (Human red cells): 48%
14 | vitamin E [reference compound] |  | 6 |  | 18% | 
